From ChEMBL document CHEMBL1142769, “A preliminary study of the metabolic stability of a series of benzoxazinone derivatives as potent neuropeptide Y5 antagonists” (Bioorg Med Chem Lett, 2005)

Legend:
[1] = Inhibitory concentration required for Metabolic stability after 1 hour at an incubation concentration of 10 uM; type: ADME
[2] = Half life period after 1 hour in human liver microsomes at 37 degree C an incubation concentration of 10 uM
[3] = Half life period after 1 hour in Rat liver microsomes at 37 degree C an incubation concentration of 10 uM
[4] = Metabolic stability after 1 hour in Rat liver microsomes at 37 degree C an incubation concentration of 10 uM
[5] = Metabolic stability after 1 hour in human liver microsomes at 37 degree C an incubation concentration of 10 uM

Row | Structure (SMILES) | IC50 [1] [nM] | half-life at 1 h, 10 µM ([2]; liver microsomes) [min] | half-life at 1 h, 10 µM ([3]; liver microsomes) [min] | remaining at 1 h, 10 µM [4] [%] | half-life at 1 h, 10 µM ([2]; microsomes) [min] | remaining at 1 h, 10 µM [5] [%] | half-life at 1 h, 10 µM ([3]; microsomes) [min]
1 | O=C(CN1CCC(N2C(=O)OCc3c(F)cccc32)CC1)Nc1ccc2[nH]c3ccccc3c2c1 | 461 | 95 | 19.3 |  |  |  | 
2 | O=C(CN1CCC(N2C(=O)OCc3ccc(Cl)cc32)CC1)Nc1ccc2sc3ccccc3c2c1 | 135 |  |  | 24 | 28.4 | 19.6 | 32.7
